Assay results reported in patent publication US9084828B2, “Oligomer-protein tyrosine kinase inhibitor conjugates” (Nektar Therapeutics, priority 2009, dated 2015).

What was measured:
Type in all cases: biochemical
AKT1 = AKT1 (Homo sapiens, UniProt P31749); assay: Activity against various protein tyrosine kinases: AKT1
ABL = ABL (Homo sapiens, UniProt P00519); assay: Activity against various protein tyrosine kinases: ABL; set-up: purchased MILLIPORE 14-529
Experimental: (§1) Using techniques know those of ordinary skill in the art, compounds were tested for activity against various protein tyrosine kinases.

CHK1 = molecular target: T1, CHK1 (Homo sapiens, UniProt O14757); assay: Activity against various protein tyrosine kinases: CHK1
T1 sequence (O14757 1-476): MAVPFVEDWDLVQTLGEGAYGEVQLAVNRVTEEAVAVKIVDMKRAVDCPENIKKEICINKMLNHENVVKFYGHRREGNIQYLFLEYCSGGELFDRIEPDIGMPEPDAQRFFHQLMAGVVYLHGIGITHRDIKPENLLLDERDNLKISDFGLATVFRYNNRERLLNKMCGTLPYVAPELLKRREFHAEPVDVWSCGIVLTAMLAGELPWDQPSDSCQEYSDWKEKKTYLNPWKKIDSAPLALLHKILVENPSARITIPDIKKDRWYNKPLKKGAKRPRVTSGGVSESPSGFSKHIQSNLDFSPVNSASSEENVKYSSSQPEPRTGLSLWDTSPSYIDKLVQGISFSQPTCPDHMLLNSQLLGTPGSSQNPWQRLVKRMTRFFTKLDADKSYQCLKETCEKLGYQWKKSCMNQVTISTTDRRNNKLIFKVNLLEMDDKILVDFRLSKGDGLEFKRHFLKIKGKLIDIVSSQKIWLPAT

PKA = PKA (Homo sapiens, UniProt P17612); assay: Activity against various protein tyrosine kinases: PKA
Flt3(D835Y) = molecular target: T2, Flt3(D835Y) (Homo sapiens, UniProt P36888, D835Y); assay: Activity against various protein tyrosine kinases: Flt3(D835Y)
T2 sequence (P36888 27-993 D835Y): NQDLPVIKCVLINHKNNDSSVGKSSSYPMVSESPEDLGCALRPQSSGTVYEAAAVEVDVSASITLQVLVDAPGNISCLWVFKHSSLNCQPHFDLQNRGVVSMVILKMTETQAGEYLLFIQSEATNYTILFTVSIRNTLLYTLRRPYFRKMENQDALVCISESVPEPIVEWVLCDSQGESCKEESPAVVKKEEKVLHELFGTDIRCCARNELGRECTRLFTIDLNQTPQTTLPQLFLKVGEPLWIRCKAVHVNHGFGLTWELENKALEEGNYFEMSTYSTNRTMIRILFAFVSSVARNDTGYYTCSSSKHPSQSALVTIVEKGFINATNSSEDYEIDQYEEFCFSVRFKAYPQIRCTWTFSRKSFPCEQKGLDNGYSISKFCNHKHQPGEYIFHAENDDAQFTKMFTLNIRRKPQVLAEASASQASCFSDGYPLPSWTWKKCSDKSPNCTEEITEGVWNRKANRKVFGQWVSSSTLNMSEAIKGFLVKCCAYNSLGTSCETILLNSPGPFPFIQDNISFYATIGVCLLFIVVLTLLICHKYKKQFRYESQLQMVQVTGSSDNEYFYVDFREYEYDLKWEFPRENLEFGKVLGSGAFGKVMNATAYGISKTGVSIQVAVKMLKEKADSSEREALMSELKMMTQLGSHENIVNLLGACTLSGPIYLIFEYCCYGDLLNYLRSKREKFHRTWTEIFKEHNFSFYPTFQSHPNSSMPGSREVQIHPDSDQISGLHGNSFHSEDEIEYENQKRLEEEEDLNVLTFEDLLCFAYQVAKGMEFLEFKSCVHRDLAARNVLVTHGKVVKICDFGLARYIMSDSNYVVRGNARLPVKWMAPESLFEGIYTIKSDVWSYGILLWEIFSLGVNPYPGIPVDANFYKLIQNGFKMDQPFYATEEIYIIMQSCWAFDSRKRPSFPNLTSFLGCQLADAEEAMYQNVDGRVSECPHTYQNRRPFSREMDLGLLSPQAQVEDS
Experimental: as §1

AurC = molecular target: T3, AurC (Homo sapiens, UniProt Q9UQB9); assay: Activity against various protein tyrosine kinases: AurC
T3 sequence (Q9UQB9 1-309): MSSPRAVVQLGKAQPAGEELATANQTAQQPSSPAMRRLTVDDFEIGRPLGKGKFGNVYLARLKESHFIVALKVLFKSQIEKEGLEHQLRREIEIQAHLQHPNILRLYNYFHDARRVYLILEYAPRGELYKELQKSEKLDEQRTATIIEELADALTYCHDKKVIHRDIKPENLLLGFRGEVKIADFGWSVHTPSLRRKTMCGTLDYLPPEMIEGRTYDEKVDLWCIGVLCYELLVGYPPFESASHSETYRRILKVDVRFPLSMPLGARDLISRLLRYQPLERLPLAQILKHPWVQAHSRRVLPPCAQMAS

RSK1 = RSK1 (Homo sapiens, UniProt Q15418); assay: Activity against various protein tyrosine kinases: RSK1
PRAK = molecular target: T4, PRAK (Homo sapiens, UniProt Q8IW41); assay: Activity against various protein tyrosine kinases: PRAK
T4 sequence (Q8IW41 1-473): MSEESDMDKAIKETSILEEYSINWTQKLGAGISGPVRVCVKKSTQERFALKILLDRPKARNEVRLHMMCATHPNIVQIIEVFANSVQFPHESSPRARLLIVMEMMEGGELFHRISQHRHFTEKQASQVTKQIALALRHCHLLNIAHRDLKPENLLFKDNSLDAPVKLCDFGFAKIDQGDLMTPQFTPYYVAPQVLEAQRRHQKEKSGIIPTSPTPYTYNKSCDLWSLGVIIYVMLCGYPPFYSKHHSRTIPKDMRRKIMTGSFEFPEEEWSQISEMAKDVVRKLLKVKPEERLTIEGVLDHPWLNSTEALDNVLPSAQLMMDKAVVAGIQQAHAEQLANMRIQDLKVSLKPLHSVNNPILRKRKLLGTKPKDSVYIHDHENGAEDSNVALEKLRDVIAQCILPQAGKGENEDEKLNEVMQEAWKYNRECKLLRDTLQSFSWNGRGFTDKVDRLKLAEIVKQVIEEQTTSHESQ

AKT1, sequence (P31749 whole entry, species assumed): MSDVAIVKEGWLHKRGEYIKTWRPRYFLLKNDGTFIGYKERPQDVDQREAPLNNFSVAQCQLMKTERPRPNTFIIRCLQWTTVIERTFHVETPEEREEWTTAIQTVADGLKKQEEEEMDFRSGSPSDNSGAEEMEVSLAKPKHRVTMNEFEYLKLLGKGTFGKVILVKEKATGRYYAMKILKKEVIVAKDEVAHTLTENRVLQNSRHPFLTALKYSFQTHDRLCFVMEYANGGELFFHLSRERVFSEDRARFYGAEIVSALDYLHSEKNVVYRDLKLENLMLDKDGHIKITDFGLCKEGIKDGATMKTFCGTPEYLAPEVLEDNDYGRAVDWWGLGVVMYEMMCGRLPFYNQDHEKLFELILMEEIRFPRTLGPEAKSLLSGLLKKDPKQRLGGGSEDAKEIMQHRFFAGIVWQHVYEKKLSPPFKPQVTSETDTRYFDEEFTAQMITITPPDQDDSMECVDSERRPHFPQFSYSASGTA
RSK1, sequence (Q15418 whole entry, species assumed): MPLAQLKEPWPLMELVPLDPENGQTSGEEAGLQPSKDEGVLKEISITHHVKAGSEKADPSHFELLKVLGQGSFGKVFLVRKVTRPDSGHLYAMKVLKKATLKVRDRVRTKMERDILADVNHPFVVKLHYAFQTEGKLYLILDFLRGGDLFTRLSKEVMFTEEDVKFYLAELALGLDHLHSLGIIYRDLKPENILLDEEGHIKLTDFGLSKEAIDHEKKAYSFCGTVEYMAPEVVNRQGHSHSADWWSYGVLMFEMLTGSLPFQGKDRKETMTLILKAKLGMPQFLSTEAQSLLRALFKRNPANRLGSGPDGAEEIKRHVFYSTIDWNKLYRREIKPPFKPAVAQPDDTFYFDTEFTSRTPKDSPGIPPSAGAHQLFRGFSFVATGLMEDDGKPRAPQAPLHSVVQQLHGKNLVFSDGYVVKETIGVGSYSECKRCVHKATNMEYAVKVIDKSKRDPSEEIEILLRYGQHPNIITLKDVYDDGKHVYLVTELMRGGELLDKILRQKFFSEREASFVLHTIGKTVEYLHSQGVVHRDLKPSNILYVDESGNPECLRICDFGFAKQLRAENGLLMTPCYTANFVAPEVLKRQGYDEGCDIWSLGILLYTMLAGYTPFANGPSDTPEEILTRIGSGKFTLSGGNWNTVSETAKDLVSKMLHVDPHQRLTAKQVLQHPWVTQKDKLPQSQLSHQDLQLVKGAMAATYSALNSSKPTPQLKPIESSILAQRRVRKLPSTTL
ABL, sequence (P00519 whole entry): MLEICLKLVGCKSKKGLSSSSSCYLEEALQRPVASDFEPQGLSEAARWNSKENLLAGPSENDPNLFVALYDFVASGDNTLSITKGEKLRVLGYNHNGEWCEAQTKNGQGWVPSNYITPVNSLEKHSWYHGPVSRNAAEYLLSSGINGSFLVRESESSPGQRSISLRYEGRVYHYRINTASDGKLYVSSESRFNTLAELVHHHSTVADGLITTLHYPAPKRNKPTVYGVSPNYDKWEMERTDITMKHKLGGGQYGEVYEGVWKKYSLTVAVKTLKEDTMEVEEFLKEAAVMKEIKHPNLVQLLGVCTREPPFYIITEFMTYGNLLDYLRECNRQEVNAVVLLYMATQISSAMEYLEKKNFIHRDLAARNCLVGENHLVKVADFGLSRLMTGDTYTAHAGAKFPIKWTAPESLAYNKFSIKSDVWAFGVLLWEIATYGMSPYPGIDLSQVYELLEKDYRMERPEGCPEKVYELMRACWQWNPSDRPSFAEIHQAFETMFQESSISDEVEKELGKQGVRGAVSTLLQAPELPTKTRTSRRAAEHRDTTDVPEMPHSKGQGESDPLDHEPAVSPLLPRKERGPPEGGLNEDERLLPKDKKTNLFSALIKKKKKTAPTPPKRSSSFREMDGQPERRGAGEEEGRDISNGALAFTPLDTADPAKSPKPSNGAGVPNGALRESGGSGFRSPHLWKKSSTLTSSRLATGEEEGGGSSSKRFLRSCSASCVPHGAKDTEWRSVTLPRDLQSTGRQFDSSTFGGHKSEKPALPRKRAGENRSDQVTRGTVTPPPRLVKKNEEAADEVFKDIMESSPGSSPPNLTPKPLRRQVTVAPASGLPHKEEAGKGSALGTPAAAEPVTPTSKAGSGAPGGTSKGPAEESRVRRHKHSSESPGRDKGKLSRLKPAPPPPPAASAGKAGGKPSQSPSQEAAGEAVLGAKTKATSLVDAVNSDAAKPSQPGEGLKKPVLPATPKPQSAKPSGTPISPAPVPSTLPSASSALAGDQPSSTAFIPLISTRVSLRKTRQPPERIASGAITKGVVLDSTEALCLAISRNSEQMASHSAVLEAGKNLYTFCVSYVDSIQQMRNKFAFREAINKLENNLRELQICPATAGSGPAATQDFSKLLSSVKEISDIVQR

SMILES | % Inhibition at 10 nM (AKT1) [%] | % Inhibition at 1 μM (AKT1) [%] | % Inhibition at 10 nM (ABL) [%] | % Inhibition at 1 μM (ABL) [%] | % Inhibition at 10 nM (CHK1) [%] | % Inhibition at 1 μM (CHK1) [%] | % Inhibition at 10 nM (PKA) [%] | % Inhibition at 1 μM (PKA) [%] | % Inhibition at 10 nM (Flt3(D835Y)) [%] | % Inhibition at 1 μM (Flt3(D835Y)) [%] | % Inhibition at 10 nM (AurC) [%] | % Inhibition at 1 μM (AurC) [%] | % Inhibition at 10 nM (RSK1) [%] | % Inhibition at 1 μM (RSK1) [%] | % Inhibition at 10 nM (PRAK) [%] | % Inhibition at 1 μM (PRAK) [%]
COCCOCCOCCNC(=O)OCCN1CCN(c2cc(Nc3ncc(C(=O)Nc4c(C)cccc4Cl)s3)nc(C)n2)CC1 [mPEG3-NHCOO-Dasatinib] | 7 | 0 | 99 | 99 | −2 | 0 | 3 | 0 | 6 | 10 | −1 | 0 | 2 | 0 | 6 | 4
COCCOCCOCCOCCOCCOCCOCCNC(=O)OCCN1CCN(c2cc(Nc3ncc(C(=O)Nc4c(C)cccc4Cl)s3)nc(C)n2)CC1 [mPEG7-NHCOO-Dasatinib] | −1 | 0 | 99 | 99 | 10 | 8 | 0 | 2 | 3 | 7 | 0 | 2 | 0 | 4 | 8 | 0
